Experimental data from the NIST ThermoML archive (doi:10.1016/j.jct.2007.04.011).
± gives the expanded uncertainty stated by the source.

What was measured:
[1] = 298.15 K, 101.33 kPa, Liquid
[2] = molar heat capacity at constant pressure; settings: 101.33 kPa, Liquid
[3] = xn = mol fraction of the nth substance listed; settings: 101 kPa, Liquid, Small sample (50 mg) DSC

Structure (SMILES) | mass density [1] [kg/m3] | molar heat capacity at constant pressure ([2]; 293.15 K) [J/K/mol] | molar heat capacity at constant pressure ([2]; 298.15 K) [J/K/mol] | molar heat capacity at constant pressure ([2]; 303.15 K) [J/K/mol] | molar heat capacity at constant pressure ([2]; 308.15 K) [J/K/mol] | molar heat capacity at constant pressure ([2]; 313.15 K) [J/K/mol] | molar heat capacity at constant pressure ([2]; 318.15 K) [J/K/mol] | molar heat capacity at constant pressure ([2]; 323.15 K) [J/K/mol] | molar heat capacity at constant pressure ([2]; 328.15 K) [J/K/mol] | molar heat capacity at constant pressure ([2]; 333.15 K) [J/K/mol] | molar heat capacity at constant pressure ([2]; 338.15 K) [J/K/mol] | molar heat capacity at constant pressure ([2]; 343.15 K) [J/K/mol] | molar heat capacity at constant pressure ([2]; 348.15 K) [J/K/mol] | molar heat capacity at constant pressure ([2]; 353.15 K) [J/K/mol] | also measured
CCC(O)CO (stereo unspecified) [1,2-butanediol] | 998.408 ± 0.5 | 228.22 ± 2 | 230.94 ± 2 | 233.64 ± 2 | 236.32 ± 2 | 238.97 ± 2.1 | 241.59 ± 2.1 | 244.18 ± 2.1 | 246.72 ± 2.1 | 249.2 ± 2.2 | 251.63 ± 2.2 | 254 ± 2.2 | 256.29 ± 2.2 | 258.5 ± 2.2 | molar heat capacity at constant pressure ([2]; 288.15 K): 225.51 ± 1.9 J/K/mol; molar heat capacity at constant pressure ([2]; 358.15 K): 260.63 ± 2.3 J/K/mol
OCCCCO [1,4-butanediol] | 1012.75 ± 0.54 | 200.39 ± 1.7 | 203.06 ± 1.8 | 205.82 ± 1.8 | 208.65 ± 1.8 | 211.57 ± 1.8 | 214.55 ± 1.9 | 217.61 ± 1.9 | 220.72 ± 1.9 | 223.9 ± 1.9 | 227.12 ± 2 | 230.4 ± 2 | 233.72 ± 2 | 237.07 ± 2 | 
OCCCCO [1,4-butanediol] + CCCCO |  |  |  |  |  |  |  |  |  |  |  |  |  |  | excess molar heat capacity ([3]; 293.15 K, x1 = 0.0804): 0.031 ± 0.15 J/K/mol; excess molar heat capacity ([3]; 293.15 K, x1 = 0.1099): 0.095 ± 0.16 J/K/mol; excess molar heat capacity ([3]; 293.15 K, x1 = 0.1826): 0.129 ± 0.16 J/K/mol; excess molar heat capacity ([3]; 293.15 K, x1 = 0.2497): 0.127 ± 0.16 J/K/mol; excess molar heat capacity ([3]; 293.15 K, x1 = 0.3244): 0.089 ± 0.16 J/K/mol; excess molar heat capacity ([3]; 293.15 K, x1 = 0.5919): 0.005 J/K/mol; excess molar heat capacity ([3]; 298.15 K, x1 = 0.1099): 0.096 ± 0.16 J/K/mol; excess molar heat capacity ([3]; 298.15 K, x1 = 0.1826): 0.011 J/K/mol; excess molar heat capacity ([3]; 298.15 K, x1 = 0.2497): 0.093 ± 0.16 J/K/mol; excess molar heat capacity ([3]; 298.15 K, x1 = 0.3244): 0.016 ± 0.15 J/K/mol; excess molar heat capacity ([3]; 303.15 K, x1 = 0.1099): 0.055 ± 0.16 J/K/mol; excess molar heat capacity ([3]; 303.15 K, x1 = 0.2497): 0.025 ± 0.15 J/K/mol
CC(O)C(C)O (stereo unspecified) [2,3-butanediol] | 1000.4 ± 0.5 |  | 236.67 ± 2 | 239.28 ± 2.1 | 241.85 ± 2.1 | 244.35 ± 2.1 | 246.82 ± 2.1 | 249.23 ± 2.2 | 251.6 ± 2.2 | 253.91 ± 2.2 | 256.17 ± 2.2 | 258.39 ± 2.2 | 260.55 ± 2.3 | 262.67 ± 2.3 | 
CC(O)CC(C)(C)O (stereo unspecified) [2-methyl-2,4-pentanediol] |  |  | 263.09 ± 2 | 267.1 ± 2.1 | 271.31 ± 2.1 | 275.53 ± 2.1 | 279.94 ± 2.2 | 284.5 ± 2.2 | 289.17 ± 2.2 | 293.9 ± 2.3 | 298.68 ± 2.3 | 303.35 ± 2.4 |  | 313.68 ± 2.4 | mass density ([1]; Vibrating tube method): 918.22 ± 0.3 kg/m3
CCCCO [butan-1-ol] | 805.77 ± 0.29 | 173.8 ± 1.5 | 177.1 ± 1.5 | 180.61 ± 1.6 | 184.28 ± 1.6 | 188.02 ± 1.6 | 192.1 ± 1.7 | 196.13 ± 1.7 | 200.4 ± 1.7 | 204.72 ± 1.8 | 209.16 ± 1.8 | 213.57 ± 1.9 | 218.1 ± 1.9 | 222.54 ± 1.9 | 
